Measured values published in publication PMC12221116, “Novel Quinazolinones Active against Multidrug‐Resistant Mycobacterium Tuberculosis: Synthesis, Antimicrobial Evaluation, and in Silico Exploration of Penicillin‐Binding Protein 1A as a Potential Target” (Chemmedchem, 2025).
In brackets after ≈: the same amount, converted by molar mass. Like-named read-outs stand apart in the source and are kept apart here.

Assays:
M. aurum = test: Microdilution broth resazurin assay, MIC; assay type: cell-based, Mycolicibacterium aurum
M. kansasii = test: Microplate Alamar Blue assay, MIC; assay type: cell-based, Mycobacterium kansasii; conditions: for MIC: Mycobacterium kansasii, read-out: Antimycobacterial Activity MIC M. kans.
Mtb H37Rv = test: Microplate Alamar Blue assay, MIC; assay type: cell-based, Mycobacterium tuberculosis; conditions: Mycobacterium tuberculosis, H37RV
M. smegmatis = test: Microdilution broth resazurin assay, MIC; assay type: cell-based, Mycolicibacterium smegmatis
M. avium = test: Microdilution broth resazurin assay, MIC; assay type: cell-based, Mycobacterium avium
Mtb H37Ra = test: Microdilution broth resazurin assay, MIC; assay type: cell-based, Mycobacterium tuberculosis
[1] = Mycolicibacterium aurum; read-out: Antimycobacterial Activity MIC M. aurum
[2] = Table S5 matching pairs series A and B
[3] = Microplate Alamar Blue assay, read-out: Antimycobacterial Activity MIC Mtb H37Rv
[4] = read-out: Antimycobacterial Activity MIC Mtb H37Rv, Table S5 matching pairs series A and B
[5] = Mycolicibacterium smegmatis; read-out: Antimycobacterial Activity MIC M. smeg.
[6] = Mycobacterium avium; read-out: Antimycobacterial Activity MIC M. avium
[7] = Mycobacterium tuberculosis, H37RA, read-out: Antimycobacterial Activity MIC Mtb H37Ra
[8] = Mycolicibacterium aurum, read-out: Antimycobacterial Activity MIC M. aurum
[9] = Mycolicibacterium smegmatis, read-out: Antimycobacterial Activity MIC M. smeg.
[10] = Mycobacterium avium, read-out: Antimycobacterial Activity MIC M. avium
[11] = Mycobacterium tuberculosis, H37RA; read-out: Antimycobacterial Activity MIC Mtb H37Ra

SMILES	MIC (M. kansasii)	MIC (Mtb H37Rv; [3])	MIC (M. aurum; [8])	MIC (M. smegmatis; [9])	MIC (M. avium; [10])	MIC (Mtb H37Ra; [11])	other results
Cc1ccccc1Cn1c(C)nc2cc(Cl)ccc2c1=O [Compound 20]	> 100 mg/L	> 100 mg/L					MIC (M. aurum; [1]): ≥ 250 mg/L; Antimycobacterial Activity MIC M. aurum (M. aurum; [2]): ≥ 250 mg/L; MIC (Mtb H37Rv; [4]): > 100 mg/L; MIC (M. smegmatis; [5]): ≥ 250 mg/L; Antimycobacterial Activity MIC M. smeg. (M. smegmatis; [2]): ≥ 250 mg/L; MIC (M. avium; [6]): ≥ 250 mg/L; Antimycobacterial Activity MIC M. avium (M. avium; [2]): ≥ 250 mg/L; Antimycobacterial Activity MIC Mtb H37Ra (Mtb H37Ra): ≥250 mg/L; MIC (Mtb H37Ra; [7]): ≥ 250 mg/L
Cc1nc2cc(Cl)ccc2c(=O)n1Cc1ccc(C(F)(F)F)cc1 [Compound 22]	25 mg/L (≈ 70.9 µM)	> 100 mg/L					MIC (M. aurum; [1]): ≥ 500 mg/L; Antimycobacterial Activity MIC M. aurum (M. aurum; [2]): ≥ 500 mg/L; Antimycobacterial Activity MIC M. kans. (M. kansasii; [2]): 25 mg/L; MIC (Mtb H37Rv; [4]): > 100 mg/L; MIC (M. smegmatis; [5]): ≥ 500 mg/L; Antimycobacterial Activity MIC M. smeg. (M. smegmatis; [2]): ≥ 500 mg/L; MIC (M. avium; [6]): ≥ 500 mg/L; Antimycobacterial Activity MIC M. avium (M. avium; [2]): ≥ 500 mg/L; Antimycobacterial Activity MIC Mtb H37Ra (Mtb H37Ra): 31.25 mg/L; MIC (Mtb H37Ra; [7]): 31.2 mg/L (≈ 88.6 µM)
Cc1nc2cc(Cl)ccc2c(=O)n1Cc1ccc2ccccc2c1 [Compound 23]	> 100 mg/L	> 100 mg/L	≥ 125 mg/L	≥ 125 mg/L	≥ 125 mg/L		Antimycobacterial Activity MIC M. aurum (M. aurum): ≥125 mg/L; MIC (Mtb H37Rv; [4]): > 100 mg/L; Antimycobacterial Activity MIC M. smeg. (M. smegmatis): ≥125 mg/L; Antimycobacterial Activity MIC M. avium (M. avium): ≥125 mg/L; Antimycobacterial Activity MIC Mtb H37Ra (Mtb H37Ra): ≥125 mg/L; MIC (Mtb H37Ra; [7]): ≥ 125 mg/L
Cc1nc2cc(Cl)ccc2c(=O)n1/N=C/c1ccccc1[N+](=O)[O-] [Compound 26]	> 25 mg/L	> 25 mg/L	≥ 62.5 mg/L	≥ 62.5 mg/L	≥ 62.5 mg/L	≥ 62.5 mg/L	
Cc1nc2cc(Cl)ccc2c(=O)n1/N=C/c1cccc([N+](=O)[O-])c1 [Compound 27]	> 50 mg/L	> 50 mg/L	≥ 62.5 mg/L	≥ 62.5 mg/L	≥ 62.5 mg/L	≥ 62.5 mg/L	
Cc1nc2cc(Cl)ccc2c(=O)n1/N=C/c1ccc([N+](=O)[O-])cc1 [Compound 28]	> 25 mg/L	> 25 mg/L	≥ 31.2 mg/L	≥ 31.2 mg/L	≥ 31.2 mg/L	≥ 31.2 mg/L	
Cc1nc2cc(Cl)ccc2c(=O)n1/N=C/c1ccccn1 [Compound 29]	> 25 mg/L	> 25 mg/L	≥ 31.2 mg/L	≥ 31.2 mg/L	≥ 31.2 mg/L	≥ 31.2 mg/L	
Cc1nc2cc(Cl)ccc2c(=O)n1/N=C/c1cccnc1 [Compound 30]	> 25 mg/L	> 25 mg/L	≥ 31.2 mg/L	≥ 31.2 mg/L	≥ 31.2 mg/L	≥ 31.2 mg/L	
Cc1nc2cc(Cl)ccc2c(=O)n1/N=C/c1ccncc1 [Compound 31]	> 25 mg/L	> 25 mg/L	≥ 31.2 mg/L	≥ 31.2 mg/L	≥ 31.2 mg/L	≥ 31.2 mg/L	
Cc1nc2cc(Cl)ccc2c(=O)n1/N=C/c1ccc(O)cc1O [Compound 33]	> 100 mg/L	> 100 mg/L	≥ 62.5 mg/L	≥ 62.5 mg/L	≥ 62.5 mg/L	≥ 62.5 mg/L	
COc1cc(/C=N/n2c(C)nc3cc(Cl)ccc3c2=O)ccc1O [Compound 34]	> 100 mg/L	> 100 mg/L	≥ 62.5 mg/L	≥ 62.5 mg/L	≥ 62.5 mg/L	≥ 62.5 mg/L	
Cc1nc2cc(Cl)ccc2c(=O)n1/N=C/c1ccccc1O [Compound 35]	> 50 mg/L	> 50 mg/L	≥ 31.2 mg/L	≥ 31.2 mg/L	≥ 31.2 mg/L	≥ 31.2 mg/L	
Cc1nc2cc(Cl)ccc2c(=O)n1/N=C/c1cccc(O)c1 [Compound 36]	> 100 mg/L	> 100 mg/L	≥ 62.5 mg/L	≥ 62.5 mg/L	≥ 62.5 mg/L	≥ 62.5 mg/L	
Cc1nc2cc(Cl)ccc2c(=O)n1/N=C/c1ccc(O)cc1 [Compound 37]	> 50 mg/L	> 50 mg/L	≥ 62.5 mg/L	≥ 62.5 mg/L	≥ 62.5 mg/L	≥ 62.5 mg/L	
COc1ccccc1/C=N/n1c(C)nc2cc(Cl)ccc2c1=O [Compound 38]	> 25 mg/L	> 25 mg/L	≥ 62.5 mg/L	≥ 62.5 mg/L	≥ 62.5 mg/L	≥ 62.5 mg/L	
COc1cccc(/C=N/n2c(C)nc3cc(Cl)ccc3c2=O)c1 [Compound 39]	> 50 mg/L	> 50 mg/L	≥ 62.5 mg/L	≥ 62.5 mg/L	≥ 62.5 mg/L	≥ 62.5 mg/L	
COc1ccc(/C=N/n2c(C)nc3cc(Cl)ccc3c2=O)cc1 [Compound 40]	> 50 mg/L	> 50 mg/L	≥ 15.6 mg/L	≥ 15.6 mg/L	≥ 15.6 mg/L	≥ 15.6 mg/L	
Cc1nc2cc(Cl)ccc2c(=O)n1/N=C/C=C/c1ccccc1 [Compound 41]	> 25 mg/L	> 25 mg/L	≥ 31.2 mg/L	≥ 31.2 mg/L	≥ 31.2 mg/L	≥ 31.2 mg/L	
Cc1nc2cc(Cl)ccc2c(=O)n1/N=C/c1ccccc1F [Compound 42]	> 25 mg/L	> 25 mg/L	≥ 31.2 mg/L	≥ 31.2 mg/L	≥ 31.2 mg/L	≥ 31.2 mg/L	
Cc1nc2cc(Cl)ccc2c(=O)n1/N=C/c1cccc(F)c1 [Compound 43]	> 25 mg/L	> 25 mg/L	≥ 62.5 mg/L	≥ 62.5 mg/L	≥ 62.5 mg/L	≥ 62.5 mg/L	
Cc1nc2cc(Cl)ccc2c(=O)n1/N=C/c1ccc(F)cc1 [Compound 44]	> 25 mg/L	> 25 mg/L	≥ 31.2 mg/L	≥ 31.2 mg/L	≥ 31.2 mg/L	≥ 31.2 mg/L	
Cc1nc2cc(Cl)ccc2c(=O)n1/N=C/c1ccc(N(C)C)cc1 [Compound 45]	> 25 mg/L	> 25 mg/L	≥ 15.6 mg/L	≥ 15.6 mg/L	≥ 15.6 mg/L	≥ 15.6 mg/L	
Cc1ccccc1/C=N/n1c(C)nc2cc(Cl)ccc2c1=O [Compound 46]	> 25 mg/L	> 25 mg/L	≥ 62.5 mg/L	≥ 62.5 mg/L	≥ 62.5 mg/L	≥ 62.5 mg/L	
Cc1cccc(/C=N/n2c(C)nc3cc(Cl)ccc3c2=O)c1 [Compound 47]	> 25 mg/L	> 25 mg/L	≥ 31.2 mg/L	≥ 31.2 mg/L	≥ 31.2 mg/L	≥ 31.2 mg/L	
Cc1ccc(/C=N/n2c(C)nc3cc(Cl)ccc3c2=O)cc1 [Compound 48]	> 25 mg/L	> 25 mg/L	≥ 31.2 mg/L	≥ 31.2 mg/L	≥ 31.2 mg/L	≥ 31.2 mg/L	
Cc1nc2cc(Cl)ccc2c(=O)n1/N=C/c1ccccc1Cl [Compound 49]	> 25 mg/L	> 25 mg/L	≥ 31.2 mg/L	≥ 31.2 mg/L	≥ 31.2 mg/L	≥ 31.2 mg/L	
Cc1nc2cc(Cl)ccc2c(=O)n1/N=C/c1cccc(Cl)c1 [Compound 50]	> 50 mg/L	> 50 mg/L	≥ 62.5 mg/L	≥ 62.5 mg/L	≥ 62.5 mg/L	≥ 62.5 mg/L	
